10 molecules from ChEMBL document CHEMBL1201862, “PubChem BioAssay data set” (2004) can be followed below.

Among the test systems are OVCAR-4; KM12; SK-MEL-5; OVCAR-3; KM-20L2; IGROV-1; MCF7; UO-31; U-251; SW-620; COLO 205; LOX IMVI; SF-268; DLD-1; NCI-H23; DMS-273; HOP-62; M19-MEL; MOLT-4; DMS-114.
Holding throughout (test): inhibition of tumour cell growth, NCI panel, 48 h

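Exposure lasted 48 hours, with cells grown in 96-well plates and compounds tested at five concentrations. Abbreviation: GI50, concentration required for 50% inhibition of growth.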 The source made the active and inactive calls. Rule as the data show it: active = GI50 up to about 1.1 µM and inactive = higher.

Turning to `O=c1ccn([C@@H]2C=C(CO)[C@@H](O)[C@H]2O)c(=O)[nH]1`, the GI50 in the assay with OVCAR-4, with KM12, with SK-MEL-5, with OVCAR-3, in the assay on KM-20L2 and in the assay on IGROV-1 was > 625 µM (inactive) each time. The GI50 in the assay on MCF7, with UO-31, with U-251, in the assay on SW-620, in the assay on COLO 205 and in the assay with LOX IMVI was > 625 µM (inactive) in each case. The GI50 with SF-268, with DLD-1, in the assay on NCI-H23, in the assay with DMS-273 and in the assay on HOP-62 was > 625 µM (inactive) in each case.

Regarding `COc1ccc(C2COc3cc(OC(C)=O)c(OC(C)=O)cc3C2)cc1` (stereo not drawn), the GI50 is 14.2 µM (inactive) in the assay with M19-MEL; 16.7 µM (inactive) in the assay with OVCAR-4; 11.4 µM (inactive) in the assay on KM12; 25.9 µM (inactive) in the assay with SK-MEL-5; 19.6 µM (inactive) in the assay with OVCAR-3; 31.4 µM (inactive) with KM-20L2. Further, the GI50 in the assay on IGROV-1 is 26.2 µM (inactive); in the assay with MCF7, 29.4 µM (inactive); in the assay with UO-31 it was 19.5 µM (inactive); in the assay with U-251, 6.49 µM (inactive); with SW-620, 14.3 µM (inactive); in the assay on MOLT-4, 5.66 µM (inactive). Further, the GI50 was 20 µM (inactive) in the assay with COLO 205; 5.65 µM (inactive) with DMS-114; 16.5 µM (inactive) in the assay with LOX IMVI; 12.3 µM (inactive) in the assay with SF-268; 20.5 µM (inactive) in the assay with DLD-1; 27.5 µM (inactive) in the assay on NCI-H23. Moreover, the values for the GI50 in the assay with DMS-273 and in the assay with HOP-62 were 17.9 µM (inactive) and 31.6 µM (inactive), respectively.

Turning to `CCCN1C(=O)/C(=C(/O)C(=O)OCC)C(c2ccc(OC)c(OC)c2)C1=O` (stereo not drawn), the GI50 in the assay with M19-MEL is > 100 µM (inactive); in the assay on OVCAR-4, > 100 µM (inactive); in the assay on KM12 it was > 100 µM (inactive); in the assay with SK-MEL-5, > 100 µM (inactive); with OVCAR-3 it was > 47.8 µM (inactive); with KM-20L2, > 100 µM (inactive). Also, the GI50 in the assay on IGROV-1, in the assay on MCF7, with UO-31, with U-251, with SW-620 and in the assay on MOLT-4 was > 100 µM (inactive) throughout. The GI50 with COLO 205, in the assay with DMS-114, with LOX IMVI, in the assay with SF-268, in the assay with DLD-1 and in the assay with NCI-H23 was > 100 µM (inactive) throughout. The GI50 in the assay with DMS-273 and in the assay with HOP-62 was > 100 µM (inactive) throughout.

With `COc1ccc(/C=c2\sc3n(c2=O)CCN=3)cc1`, the GI50 with M19-MEL is > 100 µM (inactive); in the assay on OVCAR-4 it was > 100 µM (inactive); in the assay on KM12, > 100 µM (inactive); in the assay on SK-MEL-5, 80 µM (inactive); with OVCAR-3 it was > 100 µM (inactive); in the assay with KM-20L2, > 100 µM (inactive). In addition, the GI50 in the assay on UO-31 was > 100 µM (inactive); in the assay with U-251 it was > 100 µM (inactive); in the assay on SW-620, > 100 µM (inactive); in the assay with MOLT-4, 68.5 µM (inactive); with LOX IMVI, 64.7 µM (inactive); with DLD-1, > 100 µM (inactive). Moreover, the GI50 in the assay with NCI-H23 and in the assay with HOP-62 was > 100 µM (inactive) throughout.

In the case of `CCOC(=O)CN(CC)C(=O)NC12CC3CC(CC(C3)C1)C2`, the GI50 in the assay on M19-MEL is 184 µM (inactive); in the assay with OVCAR-4, 175 µM (inactive); in the assay with KM12, 255 µM (inactive); with SK-MEL-5, 109 µM (inactive); in the assay with OVCAR-3, 105 µM (inactive); with KM-20L2 it was 170 µM (inactive). In addition, the GI50 with IGROV-1 is 276 µM (inactive); with MCF7, 177 µM (inactive); with UO-31, 139 µM (inactive); with U-251 it was 246 µM (inactive); in the assay with SW-620 it was 219 µM (inactive); with MOLT-4 it was 133 µM (inactive). Moreover, the GI50 in the assay on COLO 205 is 141 µM (inactive); in the assay on DMS-114, 134 µM (inactive); with LOX IMVI, 151 µM (inactive); with SF-268, 281 µM (inactive); in the assay on DLD-1, 65.8 µM (inactive); in the assay with NCI-H23, 208 µM (inactive). The results for the GI50 with DMS-273 and in the assay with HOP-62 were 233 µM (inactive) and 188 µM (inactive), respectively.

In the case of `CN1COCN/C1=N/C#N`, the GI50 is > 100 µM (inactive) in the assay on M19-MEL; > 100 µM (inactive) in the assay with OVCAR-4; > 100 µM (inactive) in the assay with KM12; 36.1 µM (inactive) with OVCAR-3; > 100 µM (inactive) in the assay on KM-20L2; > 100 µM (inactive) in the assay on IGROV-1. Moreover, the GI50 in the assay with UO-31, with SW-620, with MOLT-4, in the assay with COLO 205, in the assay with DMS-114 and with LOX IMVI was > 100 µM (inactive) throughout. Besides, the GI50 in the assay with SF-268, with DLD-1 and in the assay on HOP-62 was > 100 µM (inactive) throughout.

For the molecule `COc1ccccc1OCC(COC(=O)Nc1ccccc1)OC(=O)Nc1ccccc1` (stereo not drawn), the GI50 was 55.3 µM (inactive) in the assay on OVCAR-4; 68.4 µM (inactive) in the assay on KM12; 79.3 µM (inactive) with SK-MEL-5; > 100 µM (inactive) with OVCAR-3; > 100 µM (inactive) in the assay with KM-20L2; > 100 µM (inactive) in the assay on IGROV-1. In addition, the GI50 was 49.3 µM (inactive) in the assay on UO-31; 41.4 µM (inactive) in the assay with U-251; > 100 µM (inactive) with SW-620; 94.2 µM (inactive) in the assay with COLO 205; 47.1 µM (inactive) in the assay on DMS-114; 25.9 µM (inactive) with LOX IMVI. Also, the GI50 is 57.5 µM (inactive) in the assay with SF-268; > 100 µM (inactive) in the assay on DLD-1; 73.1 µM (inactive) in the assay on NCI-H23; 54.6 µM (inactive) in the assay with DMS-273; 56.6 µM (inactive) in the assay with HOP-62.

Turning to `CCOC(=O)c1ccc(N(CCOS(C)(=O)=O)CCOS(C)(=O)=O)cc1`, the GI50 was 35.7 µM (inactive) in the assay with OVCAR-4; 67.9 µM (inactive) in the assay on KM12; 42.2 µM (inactive) with SK-MEL-5; 36.6 µM (inactive) in the assay on OVCAR-3; 88.5 µM (inactive) with IGROV-1; 47.3 µM (inactive) in the assay with MCF7. Besides, the GI50 was 20.5 µM (inactive) in the assay with UO-31; 35.9 µM (inactive) in the assay with U-251; 32 µM (inactive) with SW-620; 17.8 µM (inactive) in the assay on MOLT-4; 64.9 µM (inactive) with COLO 205; 48.4 µM (inactive) with LOX IMVI. Moreover, the values for the GI50 with SF-268 and with NCI-H23 were 26.1 µM (inactive) and 43.3 µM (inactive), respectively.

In the case of `C/C=C1\C[C@@H]2C(OC)Nc3cc(O)c(OC)cc3C(=O)N2C1` (stereo partly drawn), the GI50 in the assay with M19-MEL is 0.00612 µM (active); in the assay on OVCAR-4 it was < 0.01 µM (active); with KM12, 0.0173 µM (active); in the assay with SK-MEL-5 it was < 0.01 µM (active); in the assay with OVCAR-3, < 0.01 µM (active); in the assay on KM-20L2 it was 0.00887 µM (active). In addition, the GI50 with IGROV-1, in the assay with MCF7, in the assay on UO-31, in the assay with U-251, with SW-620 and with MOLT-4 was < 0.01 µM (active) throughout. The GI50 in the assay with COLO 205 is 0.00692 µM (active); with DMS-114, 0.00118 µM (active); in the assay on LOX IMVI, < 0.01 µM (active); in the assay on SF-268, < 0.01 µM (active); in the assay with DLD-1, 0.00319 µM (active); in the assay on DMS-273 it was 0.00129 µM (active). Besides, the GI50 with HOP-62 was < 0.01 µM (active).

`C[C@H]1O[C@@H](O[C@H]2[C@@H](O)C[C@H](O[C@H]3[C@@H](O)C[C@H](O[C@H]4CC[C@@]5(C)[C@H](CC[C@@H]6[C@@H]5CC[C@]5(C)[C@@H](C7=CC(=O)OC7)CC[C@]65O)C4)O[C@@H]3C)O[C@@H]2C)C[C@H](O)[C@@H]1O` [DIGITOXIN]: the GI50 in the assay on OVCAR-4 is 0.0199 µM (active); in the assay with KM12 it was 0.0553 µM (active); in the assay with SK-MEL-5, < 0.0212 µM (active); in the assay with OVCAR-3 it was < 0.0172 µM (active); with IGROV-1, 0.0365 µM (active); in the assay on MCF7, 0.0413 µM (active). For the same molecule, the GI50 was 0.0414 µM (active) in the assay with UO-31; 0.0296 µM (active) in the assay with SW-620; 0.0501 µM (active) in the assay on COLO 205; < 0.0241 µM (active) with SF-268; 0.0185 µM (active) with NCI-H23; < 0.0199 µM (active) with HOP-62.
